Results as given in PMC11952846, “The sterol-regulating human ARV1 binds cholesterol and phospholipids through its conserved ARV1 homology domain” (The Journal of Biological Chemistry, 2025).
Positions count from the first letter of the chain named.

How the values were obtained:
GST-Annexin A2 = GST-Annexin A2 (Homo sapiens, UniProt P07355); experiment: Lipid overlay far western (positive control protein); assay type: binding
Description: (§1) Lipid overlays were blocked in TBST-BSA (100 mM Tris–HCl buffer, pH 7.5, 150 mM NaCl, 0.5% Tween 20, 3% bovine serum albumin) for 1 h and subsequently washed eight separate times with TBST for 2 min each. Overlays were incubated with 0.5 μg/ml GST-tagged or 6XHIS-tagged proteins in 3% TBST-BSA buffer containing 0.1% Triton X-100, for 1 h at room temperature and washed as above. Overlays were incubated with either anti-GST or anti-6XHIS monoclonal antibodies at a 1:1000 dilution in TBST-BSA for 1 h at room temperature followed by eight washes in TBST. Overlays were visualized using Immobilon Western Chemiluminescent horseradish peroxidase substrate and protein–lipid interaction was detected using a GE ImageQuant LAS 3000 imager.

6XHIS-ARV1-N98 K84A = molecular target: T1, 6XHIS-ARV1-N98 K84A (Homo sapiens, UniProt Q9H2C2, K84A); experiment: Lipid overlay far western, site-directed mutant; assay type: binding; settings: compared to the ARV1-N98 protein
T1 construct: Expressing amino-terminal 98 amino acids of ARV1; made in house; host or cells: E. coli BL21 (pET-28a(+))
T1 sequence (Q9H2C2 1-98 K84A): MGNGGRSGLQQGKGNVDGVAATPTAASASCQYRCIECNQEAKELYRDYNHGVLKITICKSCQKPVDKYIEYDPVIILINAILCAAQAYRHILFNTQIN
Description: as §1

6XHIS-N98 K67A = molecular target: T2, 6XHIS-N98 K67A (Homo sapiens, UniProt Q9H2C2, K67A); experiment: HTRF phospholipid lipid-binding assay, mutant; design: key: NC, no change; settings: biotinylated lipid; NC = no change vs N98
T2 construct: made in house; host or cells: E. coli BL21
T2 sequence (Q9H2C2 1-98 K67A): T1 sequence (Q9H2C2 1-98 K84A) with K67A, A84K
Text: (§2) An HTRF assay was developed for 6XHIS-ARV1-N98-lipid binding. HTRF measures analyte interactions through fluorescence resonance energy transfer technology and time-resolved measurements ([53]). The interaction between two molecules can be quantified through binding each individual molecule involved with a fluorescent label and then analyzing the transfer of energy between the initial donor fluorophore and the secondary acceptor fluorophore. Following excitation of the first fluorophore, transfer of energy can only occur if the molecules bound with the fluorescent tags are within proximity to each other.
(§3) Assays were plated in 384-well flat bottom microplates (Greiner Bio, catalog #784075-25). Proteins were diluted using binding buffer (20 mM Hepes buffer, pH 7.2, containing 0.1% BSA, and 0.01% Tween20) to a stock concentration of 0.75 μM, and biotinylated phospholipids were dispensed, dried under nitrogen gas, and resuspended in binding buffer to a stock concentration of 50 μM. The lipid stock solution was diluted by 1:2 for a series of 12 serial dilutions. For the assay, in sequential order, 6 μl of binding buffer was loaded into the plate in triplicate for each dilution of phospholipid. To this, 2 μl of 0.75 μM 6XHIS-ARV1-N98 was added, followed by 2 μl of biotinylated phospholipid. Immediately following each addition loaded into the plate, the plate was centrifuged for 1 min at 1000 rpm to bring the contents to the bottom of the well. Next, detection antibodies were mixed with detection buffer (20 mM Hepes buffer, pH 8.5, containing 0.01% BSA and 200 mM KF). Antibodies were a MAb anti-6XHIS Europium kryptate-conjugated D1 fluorescent antibody (Cisbio, #61HISKLA) and Streptavidin-conjugated d2 fluorescent antibody (Cisbio, #610SADLA). For each 1000 μl of detection buffer, 5 μl of each antibody was added just prior to loading 10 μl into each well. The plate was again centrifuged for 1 min at 1000 rpm and stored in a sealed container overnight, in the dark. Plates were read on a PerkinElmer EnVision Xcite Multilabel plate reader.
(§4) Curves were logarithmically transformed and normalized to a common scale before being fit with a nonlinear regression of the agonist against the normalized response. This generated half maximal effective concentration values (EC50; M) that could then be compared between different lipids. In the context of our study, EC50 values were defined as a measure of protein sensitivity to binding to a particular lipid within a dose response curve. For phospholipid competition analysis, IC50; M values were determined using nonlinear regression of the inhibitor against normalized response.

6XHIS-N98 K84A = molecular target: T3, 6XHIS-N98 K84A (Homo sapiens, UniProt Q9H2C2, K84A); experiment: HTRF phospholipid lipid-binding assay, mutant; design: key to Bio-PL, EC50, M ± S.D.: NC, no change; settings: biotinylated lipid, NC = no change vs N98
T3 construct: made in house; host or cells: E. coli BL21
T3 sequence (Q9H2C2 1-98 K84A): T1 sequence (Q9H2C2 1-98 K84A)
Text: as §2, §3, §4

6XHIS-ARV1-N98 C34/C37A = molecular target: T4, 6XHIS-ARV1-N98 C34/C37A (Homo sapiens, UniProt Q9H2C2, C34A/C37A); experiment: Lipid overlay far western, site-directed mutant; assay type: binding; settings: compared to the ARV1-N98 protein
T4 construct: Expressing amino-terminal 98 amino acids of ARV1; made in house; host or cells: E. coli BL21 (pET-28a(+))
T4 sequence (Q9H2C2 1-98 C34A/C37A): T1 sequence (Q9H2C2 1-98 K84A) with C34A, C37A, A84K
Description: as §1

6XHIS-ARV1-N98 K67A = molecular target: T5, 6XHIS-ARV1-N98 K67A (Homo sapiens, UniProt Q9H2C2, K67A); experiment: Lipid overlay far western, site-directed mutant; assay type: binding; settings: compared to the ARV1-N98 protein
T5 construct: Expressing amino-terminal 98 amino acids of ARV1; made in house; host or cells: E. coli BL21 (pET-28a(+))
T5 sequence (Q9H2C2 1-98 K67A): T1 sequence (Q9H2C2 1-98 K84A) with K67A, A84K
Description: as §1

[1] = lipid-embedded membrane strips, incl. sphingolipid strip

Sequence of GST-Annexin A2 (P07355 whole entry): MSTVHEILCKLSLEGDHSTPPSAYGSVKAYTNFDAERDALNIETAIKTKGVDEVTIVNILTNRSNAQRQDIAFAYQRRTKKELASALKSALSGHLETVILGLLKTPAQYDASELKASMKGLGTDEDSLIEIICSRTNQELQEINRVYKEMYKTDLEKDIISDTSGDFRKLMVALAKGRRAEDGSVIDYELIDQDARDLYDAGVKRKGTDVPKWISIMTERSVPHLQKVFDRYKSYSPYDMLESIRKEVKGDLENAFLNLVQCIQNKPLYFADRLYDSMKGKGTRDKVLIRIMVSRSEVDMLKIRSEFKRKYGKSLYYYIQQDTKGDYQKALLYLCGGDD

CCCCC/C=C\C/C=C\CCCCCCCC(=O)OC[C@H](COP(=O)(O)OCC(O)COP(=O)(O)OC[C@@H](COC(=O)CCCCCCC/C=C\C/C=C\CCCCC)OC(=O)CCCCCCC/C=C\C/C=C\CCCCC)OC(=O)CCCCCCC/C=C\C/C=C\CCCCC (stereo partly drawn) [CL, cardiolipin]
lipid-protein interaction (GST-Annexin A2; [1]): interacted | change of lipid-protein interaction (6XHIS-ARV1-N98 K84A): weakened

CCCCCCCCCCCCCCCC(=O)OC[C@H](COP(=O)(O)O)OC(=O)CCCCCCCCCCCCCCC [PA, phosphatidic acid]
lipid-protein interaction (GST-Annexin A2; [1]): weakly | Bio-PL, EC50, M ± S.D. (6XHIS-N98 K67A): NC | Bio-PL, EC50, M ± S.D. (6XHIS-N98 K84A): NC

CCCCCCCC/C=C\CCCCCCCC(=O)OC[C@H](COP(=O)(O)OCC(O)CO)OC(=O)CCCCCCC/C=C\CCCCCCCC (stereo partly drawn) [PG, phosphatidylglycerol]
Bio-PL, EC50, M ± S.D. (6XHIS-N98 K67A): reduced PG binding | Bio-PL, EC50, M ± S.D. (6XHIS-N98 K84A): reduced | change of lipid-protein interaction (6XHIS-ARV1-N98 K84A): weakened | change of lipid-protein interaction (6XHIS-ARV1-N98 C34/C37A): weakened or eliminated | change of lipid-protein interaction (6XHIS-ARV1-N98 K67A): weakened

CCCCCCCCCCCCCCCCCC(=O)OC[C@H](COP(=O)(O)OC[C@H](N)C(=O)O)OC(=O)CCCCCCCCCCCCCCCCC [PS, phosphatidylserine]
lipid-protein interaction (GST-Annexin A2; [1]): interacted | Bio-PL, EC50, M ± S.D. (6XHIS-N98 K67A): NC | Bio-PL, EC50, M ± S.D. (6XHIS-N98 K84A): NC | change of lipid-protein interaction (6XHIS-ARV1-N98 C34/C37A): enhanced

CCCCCC(=O)O[C@H](COC(=O)CCCCCNC(=O)CCCC[C@@H]1SC[C@@H]2NC(=O)N[C@@H]21)COP(=O)(O)O[C@H]1[C@H](O)[C@@H](O)[C@H](OP(=O)(O)O)[C@@H](O)[C@H]1O [reference compound]
lipid-protein interaction (GST-Annexin A2; PIP lipid membrane strip, 100pmol-1.56pmol per spot): strongest interactions | lipid-protein interaction (GST-Annexin A2; [1]): interacted | Bio-PL, EC50, M ± S.D. (6XHIS-N98 K67A): weakened | change of lipid-protein interaction (6XHIS-ARV1-N98 K84A): increased interactions | change of lipid-protein interaction (6XHIS-ARV1-N98 C34/C37A): enhanced interactions | change of lipid-protein interaction (6XHIS-ARV1-N98 K67A): increased interactions

phosphatidylcholine [PC]
Bio-PL, EC50, M ± S.D. (6XHIS-N98 K67A): NC | Bio-PL, EC50, M ± S.D. (6XHIS-N98 K84A): NC

phosphatidylethanolamine [PE]
EC50 (6XHIS-N98 K84A; read-out: Bio-PL, EC50, M ± S.D.): 210 nM | change of lipid-protein interaction (6XHIS-ARV1-N98 K67A): interacted weakly
